Reference: US9737525B2, “Small molecule activators of NRF2 pathway” (The General Hospital Corporation, priority 2013, dated 2017)

Tests used:
[1] = tested on: BV2 microglia cells; test: Transcriptional expression profiling in LPS-induced microglia BV2 cells (qRT-PCR); assay type: cell-based, mouse
Method: To further validate the NRF2 activating properties of MIND4, effects of the compound on repression of inflammatory responses were tested in LPS-induced BV2 microglia cells, a model in which the influence of NRF2 signaling on inflammation has been well established (Koh et al., 2011). A BV2 mouse microglia cell line was maintained in DMEM media supplemented with 10% FBS (Sigma) and antibiotic-antimycotic mix. Cells were seeded into 12 well plates at the density of 3×10^5 cells/well. Cells were treated with the indicated concentrations of MIND4, MIND4-17, and MIND4A compounds for 24 hr. Cells were then stimulated with 10 ng/ml LPS (E. coli) for 2 hr. Total RNA was isolated using ZR Miniprep kit (Zymo Research). 1 μg of total RNA was used to prepare cDNA. Gene expression was analyzed using VeriQuest SYBR green assay in Roche480 thermocycler. The sequences of gene-specific primers for qPCR were as follows: […]
Immortalized bone marrow derived mouse macrophages (iBMMs) and BV2 mouse microglia cell line were used in the present study. Both cell types were maintained in DMEM media supplemented with 10% FBS and antibiotic-antimycotic mix. Cells were seeded into 12 well plates at the density of 3×10^5 cells/well. Cells were treated with the indicated concentrations of MIND4-17 compounds for 24 hr. Cells were then stimulated with 10 ng/ml LPS (E. coli, Sigma) for 2 hr. Total RNA was isolated using ZR Miniprep kit (Zymo Research). […] of total RNA was used to prepare cDNA. Gene expression was analyzed using VeriQuest SYBR green assay (Affymetrix) in Roche480 thermocycler. Primer sequences are as described above (see Example 9).

[2] = tested on: 5×-ARE promoter-luciferase reporter; test: 5×-ARE-luciferase reporter assay in primary corticostriatal co-cultures; assay type: cell-based, mouse; conditions: 5 μM, 4 hr or 16 hr
Method: Primary corticostriatal neuronal co-cultures were prepared from E18 mouse brains as previously described [Kaltenbach, 2010]. Mice were maintained in accordance with Duke University Medical Center Institutional Animal Care and Use Committee guidelines. For 5×-ARE-luciferase reporter assays, neurons were transfected following their isolation (Nucleofector, Lonza) with 2.5 μg Cignal Antioxidant Response Reporter dual luciferase plasmids (Qiagen/SABiosciences) and plated onto pre-established glial beds in 96 well plates. After 4 days in culture at 37° C. under 5% CO2, co-cultures were treated with the indicated compounds for 4 hr or 16 hr then harvested and read for luminescence from firefly and Renilla luciferases according to the Dual Glo luciferase protocol (Promega) using a SpectraMaxL luminometer (Molecular Devices). Each sample was measured in technical triplicate. For quantitative RT-PCR (qPCR) of ARE target genes, corticostriatal co-cultures were prepared as described above and, after 4 days in culture, treated for 6 hr with the indicated compounds followed by RNA harvesting according to the Absolutely RNA miniprep protocol (Agilent Technologies). Purified RNA was converted to cDNA using random hexamers and SuperScript First-Strand RT-PCR Synthesis (Invitrogen). […] Ct values were determined using primer sets against ARE genes Hmox1, Gclc and Nqo1]. […]

[3] = tested on: NRF2/KEAP1 in MEFs; test: NQO1 and NRF2 levels in mouse embryonic fibroblasts (MEFs), western blot; assay type: cell-based; conditions: wild-type MEFs; for Accumulation of total NRF2 protein: 5 hr exposure
Method: Mouse embryonic fibroblasts (MEFs) from wild-type (WT), NRF2-knockout (NRF2-KO) or KEAP1-knockout (KEAP1-KO) mice, were cultured in plastic dishes (Invitrogen) coated for 30 min with 0.1% (w/v) gelatin before use. The cell culture medium was Iscoves Modified Dulbecco's Medium (with L-glutamine) supplemented with human recombinant epidermal growth factor (10 ng/mL), 1× insulin/transferrin/selenium, and 10% (v/v) heat-inactivated FBS, all from Invitrogen. Cells were maintained at 5% CO2 in air at 37° C. For experiments, cells (250,000 per well) were grown for 24 hr on 6-well plates, and then treated with solvent control (0.1% DMSO, v/v) or compounds for either 5 hr or 24 hr. For western blot analysis, cells were washed twice with ice-cold phosphate buffered saline (PBS) and lysed in 150 μl of RIPA buffer (50 mM Tris-Cl pH 7.5, 150 mM NaCl, 0.5% sodium deoxycholate, 1% NP-40, 0.1% SDS and 1 mM EDTA), containing 1 protease inhibitor cocktail tablet (Roche) per 10 ml of buffer. Cell debris were removed by centrifugation at 16,300×g for […] at 4° C., and protein concentrations were determined by the BCA assay (Thermo). Proteins were resolved by SDS/PAGE, transferred to immobilon-P membranes, and probed with specific antibodies against NQO1 (1:1000) or NRF2 (1:1000). Equal loading was confirmed by probing the blots with an antibody against β-actin (mouse monoclonal, 1:10000), from Sigma, Dorset, United Kingdom.
For nuclear-cytoplasmic separation, WT MEFs (500,000 per dish) were grown for 24 hr on 6-cm plates, and then treated with solvent control (0.1% DMSO, v/v) or 0.5 μM MIND4-17. At the end of each treatment time, cells were placed on ice and washed twice with ice-cold PBS and subsequently lysed in buffer A [10 mM KCl, 5 mM MgCl2, 50 mM Tris-HCl (pH 7.5), 0.5% Nonidet P-40 (Roche), 1 mM dithioretitol (DTT) (Sigma), containing one protease inhibitor tablet and one phosphatase inhibitor tablet (both from Roche) per each 10 ml of buffer]. The lysates were subjected to centrifugation (Spectrafuge 24D, Labnet) at 1,000×g for 5 min at 4° C. The supernatant (cytoplasmic fraction) was transferred to a fresh Eppendorf tube. The pellet (nuclear fraction) was washed three times in buffer A before being dissolved in buffer B [2% SDS, 150 mM NaCl, 65 mM Tris-HCl (pH 8.0)] and sonicated for 30 sec. Finally, the lysates were subjected to western blot analysis. The blots were probed with antibodies against GAPDH (rabbit polyclonal, 1:5000) and Lamin A/C (rabbit polyclonal, 1:1000, Gene Tex, Calif., United States of America) to confirm fraction purity and equal protein loading.

[4] = tested on: NQO1; test: Quantitative NQO1 inducer bioassay in Hepa1c1c7 cells; assay type: cell-based, murine; conditions: for Effect of GSH pre-incubation on NQO1 inducer potency: 1 mM GSH at 37° C. for 30 min before cell treatment; for CD value (Concentration which Doubles the specific activity of NQO1): Hepa1c1c7 cells; for CD value (Concentration which Doubles the specific activity of NQO1) / EC (2-fold NQO1 activity): 48 hr exposure; for EC (2-fold NQO1 activity): Mus musculus, Hepa-1c1c7, Table 3, Concentration which Doubles the specific activity of NQO1, read-out: NQD1 CD
Method: Cells grown in 96-well plates were exposed to serial dilutions of each compound for 48 hr, and the NQO1 enzyme activity was determined in cell lysates. Results are shown as average values of 8 replicate wells. The standard deviation in each case was less than 5%.
Next, using a quantitative NQO1 inducer bioassay in murine Hepa1c1c7 cells and the CD value (Concentration which Doubles the specific activity of NQO1) as a measure of potency (see Table 2), the activities of the MIND4 analogs were tested and ranked.
Inducer potency was quantified by use of the NQO1 bioassay in Hepa1c1c7 cells as described [Prochaska, 1988]. To examine the effect of GSH on inducer potency, compounds were incubated in cell culture medium containing 1 mM GSH at 37° C. for 30 min before cell treatment.

[5] = BV2 cells, dose-dependent, 24 hr

Row | SMILES | TNFα and IL-6 gene expression ([1]; 3 μM 24 hr pre-treatment, LPS-activated BV2 cells) | IL-1β and MCP-1 transcription ([1]; 3 μM 24 hr pre-treatment, basal and LPS-induced BV2 cells) | Transcriptional rate of 5×-ARE promoter-luciferase reporter [2] | Accumulation of total NRF2 protein [3] | Effect of GSH pre-incubation on NQO1 inducer potency [4] | CD value (Concentration which Doubles the specific activity of NQO1) [4] [µM] | EC (2-fold NQO1 activity) [4] [µM] | Expression of inflammatory factors TNFα, IL-6, IL-1β and MCP-1 [1, 5] | Transcription of GCLM and NQO1 [1, 5] | NRF2 levels in nuclear and cytoplasmic fractions ([3]; 0.5 μM, from 30 min, elevated for at least 5 hr)
1 | O=[N+]([O-])c1ccc(Sc2nnc(COc3ccccc3)n2-c2ccccc2)c2ncccc12 [MIND4, 5-nitro-8-{[5-(phenoxymethyl)-4-phenyl-4H-1,2,4-triazol-3-yl]thio}quinoline] | correspondingly reduced | repression of both basal and LPS-induced transcription | able to induce increases in the transcriptional rate | to much lesser extent | much less pronounced effect | 1.3 | 1.3 | – | – | –
2 | O=[N+]([O-])c1ccc(Sc2nnc(COc3ccccc3)n2-c2ccccc2)nc1 [MIND4-17] | – | – | able to induce increases in the transcriptional rate | readily detectable | drastically reduced the potency | 0.15 | 0.15 | repressed transcriptional expression of inflammatory factors | increased transcription of the canonical NRF2 target genes GCLM and NQO1 | increase of NRF2 levels was detected
